Where two headings read alike, the source gives them in different places.
Assays:
DENV-2 = assay: Antiviral activity, virus yield inhibition assay (plaque assay) against DENV-2 in Vero cells; format: cell-based, dengue virus (DENV-2 strain NGC); settings: for activity against DENV-2 (in words): DENV-2 in Vero cells
Method: Figure 3 Antiviral activity of dichloromethane (A) and methanolic extracts (B) and against DENV-2 in Vero cells. Cells were infected with DENV-2 (m.o.i. 0.1 PFU/cell) and, after 1 h adsorption at 37 °C, were treated with medium containing different dilutions of the dichloromethane extracts or vehicle. After 48h of infection, viral yield was determined via plaque assay. […] Results are expressed as the mean values ± standard deviation (SD).
Figure 4 Antiviral activity of pure compounds against DENV-2 in Vero cells. Cells were infected with DENV-2 (m.o.i. 0.1 PFU/cell) and, after 1 h adsorption at 37 °C, were treated with medium containing different dilutions of the pure compounds or vehicle (dimethyl sulfoxide). After 48 h of infection, viral yield was determined via plaque assay. Results are expressed as the mean values ± standard deviation (SD).
(§1) Vero (African green monkey kidney, ATCC CCL-81) cells were grown in Eagle’s minimum essential medium (MEM, Gibco™ Thermo Fisher Scientific, Waltham, MA, USA) supplemented with 5% heat-inactivated newborn bovine serum (NBS, Gibco™ Thermo Fisher Scientific, Carlsbad, CA, USA) and 1.5 g/L of sodium bicarbonate in a 5% CO2 atmosphere. For the maintenance medium (MM), the serum concentration was reduced to 1.5%. The C6/36 HT mosquito cell line from Aedes albopictus (ATCC CRL-1660), adapted to grow at 33 °C, was cultured in L-15 Medium (Leibovitz) supplemented with 0.3% tryptose phosphate broth, 0.02% glutamine, 1% MEM non-essential amino acids solution, and 5% FBS. The original stock of DENV-2 strain NGC was prepared in C6/36 cells and titrated via plaque formation in Vero cells.
Antiviral activity was evaluated with a virus yield inhibition assay. Cells grown in 24-well microplates were infected with DENV-2 at a multiplicity of infection (m.o.i.) of 0.1 PFU/cell, and after 1 h adsorption at 37 °C, the unadsorbed virus was removed by washing with PBS and refed with MM containing different two-fold dilutions of each compound or vehicle (DMSO or methanol). […] The concentration of the solvent used for the control was the maximum present in the highest concentration of the extract or compound evaluated. After 48 h of infection, supernatants were collected and cooled down, and serial dilutions were prepared to infect Vero cell monolayers to measure virus yield via the PFU method. After viral adsorption for 1 h at 37 °C, the virus excess was removed; MM supplemented with 0.7% methylcellulose was added and cells were incubated for 1 week at 37 °C in a 5% CO2 incubator. Finally, cell monolayers were fixed with 10% formaldehyde, washed, and stained with a 1% solution of crystal violet, and PFU were counted. Inhibition values (% respect to viral control): The effective concentration 50% (EC50), as the concentration required to reduce virus yield by 50% in the compound-treated cultures, was calculated via non-linear regression using GraphPad Prism (v9.0) software, compared with viral control treated with vehicle (DMSO or methanol), and presented as the mean ± SD obtained from three independent experiments.

[1] = Cytotoxicity assay (MTT) on Vero cells; format: cell-based; settings: African green monkey
Method: as §1
Confluent cell monolayers in 96-well plates were exposed for 48 h to serial two-fold compound dilutions, four wells for each concentration, and then viability was tested. The concentration range evaluated for extracts was 1–250 µg/mL, and for pure compounds, it was 1–200 µM or 1–100 µM depending on the phytochemical. […] Cell cultures treated with 0.01% concentration of vehicle (DMSO or methanol) were taken as cell control. Cell viability determinations were performed by the 3-(4,5-dimethylthiazol-2-yl)-2,5-diphenyl tetrazolium bromide (MTT, Sigma-Aldrich, St. Louis, MO, USA) method, adding 10 µL of MM containing MTT reagent (final concentration 0.5 mg/mL) to each well. After 2 h of incubation at 37 °C, the supernatants were removed, 100 µL of ethanol was added per well to solubilize the formazan crystals, and absorbance was measured at 595 nm. Viability values (% respect to cell control): The cytotoxic concentration 50% (CC50) was calculated via non-linear regression using GraphPad Prism (v9.0.) software as the compound concentration required to reduce the MTT signal by 50% compared to cell controls treated with vehicle (DMSO or methanol), and it is presented as the mean ± standard deviation (SD) obtained from three independent experiments.

human cancer cell lines = test system: human cancer cell lines; parameters: method as in PMID 32805622; settings: cited from earlier work
[2] = pure phytochemicals, Vero cells, 48 h, MTT, mean of three determinations ± SD, read-out: CC50
[3] = Dengue virus, DENV2, Vero, 48 h, pure phytochemicals, concentration reducing DENV-2 yield by 50%, Vero cells, m.o.i. 0.1, 48 h, mean of three ± SD
[4] = Vero cells (confluent monolayers), pure phytochemicals, Vero cells, 48 h, MTT, mean of three determinations ± SD, read-out: CC50
[5] = pure phytochemicals, concentration reducing DENV-2 yield by 50%, Vero cells, m.o.i. 0.1, 48 h, mean of three ± SD

C=C1C(=O)O[C@H]2C[C@]3(C)O[C@@H]3[C@@H]3O[C@@H]3C3=C[C@@H](OC3=O)[C@H]12 [Compound 1, mikanolide]
EC50 (DENV-2; Dengue virus, DENV2, Vero, 48 h): > 2 µM | CC50 [1]: 6.69 ± 0.49 µM

C=C1C(=O)O[C@@H]2/C=C(\C)CC/C=C(\C)C[C@@H](OC(=O)/C(=C/CO)CO)[C@@H]12 [Compound 2, eupatoriopicrin]
EC50 (DENV-2; Dengue virus, DENV2, pure phytochemicals, concentration reducing DENV-2 yield by 50%, Vero cells, m.o.i. 0.1, 48 h, mean of three ± SD, read-out: EC50): > 2 µM | CC50 [1, 2]: 10.8 ± 0.88 µM

C=C1C(=O)O[C@@H]2[C@H]3C(C)=CC[C@H]3C(=C)C[C@@H](OC(=O)/C(=C/CO)CO)[C@@H]12 [Compound 3, eupahakonenin B]
EC50 (DENV-2; [3]): > 2 µM | CC50 at 48 h [1, 4]: 11.2 ± 0.36 µM

C=C1C(=O)O[C@@H]2/C=C(\CO)CC/C=C(\COC(C)=O)C[C@H](OC(C)=O)[C@@H]12 [Compound 4, minimolide]
EC50 (DENV-2; [3]): > 2 µM | CC50 at 48 h [1, 4]: 10.6 ± 0.55 µM

C=C1C(=O)OC2C1CCC(=C)C1CC3OC3(C)C12 (centres unmarked) [Compound 5, estafietin]
EC50 (DENV-2; [3]): > 2 µM | CC50 at 48 h [1, 4]: 23.5 ± 0.99 µM

C=C1CC[C@H]2C(=C)C(=O)O[C@@H]2[C@H]2C(C)=CC(=O)[C@@H]12 [Compound 6, 2-oxo-8-deoxyligustrin]
EC50 (DENV-2; [3]): 3.7 µM | EC50 (DENV-2; [5]): 3.72 ± 0.28 µM | CC50 at 48 h [1, 4]: 21.8 ± 4.15 µM

C=C1C(=O)O[C@@H]2/C=C(\C)[C@@H](O)C/C=C(\C)C[C@@H](OC(=O)/C(=C/CO)COC(C)=O)[C@@H]12 [Compound 7, santhemoidin C]
EC50 (DENV-2; [3]): 3.1 µM | EC50 (DENV-2; [5]): 3.12 ± 1.39 µM | CC50 at 48 h [1, 4]: 21 ± 3.65 µM

C=C(C)c1cc2cc(C(C)=O)c(O)cc2o1 [Compound 8, euparin]
EC50 (DENV-2; [3]): 6.8 µM | EC50 (DENV-2; [5]): 6.81 ± 0.2 µM | CC50 at 48 h [1, 2]: > 500 µM

COc1cc(-c2oc3cc(O)c(OC)c(O)c3c(=O)c2OC)ccc1O [Compound 9, jaceidin]
EC50 (DENV-2; [3]): > 2 µM | CC50 at 48 h [1, 4]: > 100 µM

COc1c(O)cc2oc(-c3ccc(O)c(O)c3)cc(=O)c2c1O [Compound 10, nepetin]
activity against DENV-2 (in words) (DENV-2): inactive | EC50 (DENV-2; [3]): > 2 µM | CC50 at 48 h [1]: > 100 µM

COc1cc(-c2cc(=O)c3c(O)c(OC)c(O)cc3o2)ccc1O [Compound 11, jaceosidin]
activity against DENV-2 (in words) (DENV-2): inactive | EC50 (DENV-2; [3]): > 2 µM | CC50 at 48 h [1, 4]: > 100 µM

O=C1C[C@@H](c2ccc(O)c(O)c2)Oc2cc(O)cc(O)c21 [Compound 12, eryodictiol]
EC50 (DENV-2; [3]): > 2 µM | CC50 at 48 h [1, 4]: > 100 µM

COc1ccc(-c2cc(=O)c3c(O)c(OC)c(OC)cc3o2)cc1O [Compound 13, eupatorin]
EC50 (DENV-2; [3]): > 2 µM | CC50 [1, 2]: > 200 µM

COc1ccc(-c2cc(=O)c3c(O)c(OC)c(OC)cc3o2)cc1OC [Compound 14, 5-demethylsinensetin]
EC50 (DENV-2; [3]): > 2 µM | CC50 at 48 h [1, 4]: 184 ± 27.8 µM

macrocephalide A
50% cell growth inhibitions (human cancer cell lines): 0.576 µM

macrocephalide B
50% cell growth inhibitions (human cancer cell lines): 6.37 µM

— paper PMC10891539, “Plant Extracts and Phytochemicals from the Asteraceae Family with Antiviral Properties” (Molecules, 2024)
